In patent US9113629B2, “4-amino-6-(4-substituted-phenyl)-picolinates and 6-amino-2-(4-substituted-phenyl)-pyrimidine-4-carboxylates and their use as herbicides” (DOW AGROSCIENCES LLC, priority 2013, dated 2015):
Read-outs that look alike come from different tables or passages of the source.

Columns and labels:
[1] = test system: Key Grass and Sedge Weeds as well as Grass Crops; assay: Post-emergent Test II herbicidal activity (Table 6); type: in vivo; details: post-emergence, 336 h; for pest or weed control at 70 g/ha: application rate 70 g ai/ha; for pest or weed control at 140 g/ha: application rate 140 g ai/ha
Procedure, shortened: (§1)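 Percent injury, 0 (none) to 100 (complete kill), was judged visually 14 d after spraying young plants at the first or second true leaf stage with compound in an acetone/DMSO aqueous carrier at 187 L/ha. Plants were kept in a greenhouse at 23–29 °C by day.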

[2] = test system: Key Broadleaf Weed and Crop Species; assay: Post-emergent Test II herbicidal activity (Table 5); type: in vivo; details: post-emergence, 336 h, post-emergent, 14 days after application; for pest or weed control at 70 g/ha: 70 g ai/ha; for pest or weed control at 140 g/ha: 140 g ai/ha
Procedure, shortened: as §1

[3] = Triticum aestivum, TRZSS (wheat), read-out: Visual Growth Reduction (%) 14 Days After Application, TRZSS
[4] = CYPES: yellow nutsedge (Cyperus esculentus), read-out: Visual Growth Reduction (%) 14 Days After Application, CYPES
[5] = DIGSA: crabgrass (Digitaria sanguinalis), read-out: Visual Growth Reduction (%) 14 Days After Application, DIGSA
[6] = ECHCG: barnyardgrass (Echinochloa crus-galli), read-out: Visual Growth Reduction (%) 14 Days After Application, ECHCG
[7] = ORYSA: rice (Oryza sativa), read-out: Visual Growth Reduction (%) 14 Days After Application, ORYSA
[8] = SETFA: giant foxtail (Setaria faberi), read-out: Visual Growth Reduction (%) 14 Days After Application, SETFA
[9] = SORVU: grain sorghum (Sorghum vulgare), read-out: Visual Growth Reduction (%) 14 Days After Application, SORVU
[10] = ZEAMX: maize, corn (Zea mays), read-out: Visual Growth Reduction (%) 14 Days After Application, ZEAMX
[11] = ABUTH: velvetleaf (Abutilon theophrasti), read-out: Visual Growth Reduction (%) 14 Days After Application ABUTH
[12] = AMARE: redroot pigweed (Amaranthus retroflexus), read-out: Visual Growth Reduction (%) 14 Days After Application AMARE
[13] = BRSNN: oilseed-rape, canola (Brassica napus), read-out: Visual Growth Reduction (%) 14 Days After Application BRSNN
[14] = CHEAL: lambsquarters (Chenopodium album), read-out: Visual Growth Reduction (%) 14 Days After Application CHEAL
[15] = EPHHL: wild poinsettia (Euphorbia heterophylla), read-out: Visual Growth Reduction (%) 14 Days After Application EPHHL
[16] = HELAN: sunflower (Helianthus annuus), read-out: Visual Growth Reduction (%) 14 Days After Application HELAN
[17] = VIOTR: wild pansy (Viola tricolor), read-out: Visual Growth Reduction (%) 14 Days After Application VIOTR

Structure (SMILES) | pest or weed control at 70 g/ha [1, 3] [%] | pest or weed control at 140 g/ha [1, 3] [%] | pest or weed control at 70 g/ha [1, 4] [%] | pest or weed control at 140 g/ha [1, 4] [%] | pest or weed control at 70 g/ha [1, 5] [%] | pest or weed control at 140 g/ha [1, 5] [%] | pest or weed control at 70 g/ha [1, 6] [%] | pest or weed control at 140 g/ha [1, 6] [%] | pest or weed control at 70 g/ha [1, 7] [%] | pest or weed control at 140 g/ha [1, 7] [%] | pest or weed control at 70 g/ha [1, 8] [%] | pest or weed control at 140 g/ha [1, 8] [%] | pest or weed control at 70 g/ha [1, 9] [%] | pest or weed control at 140 g/ha [1, 9] [%] | pest or weed control at 70 g/ha [1, 10] [%] | pest or weed control at 140 g/ha [1, 10] [%] | pest or weed control at 70 g/ha [2, 11] [%] | pest or weed control at 140 g/ha [2, 11] [%] | pest or weed control at 70 g/ha [2, 12] [%] | pest or weed control at 140 g/ha [2, 12] [%] | other results
C#Cc1ccc(-c2nc(C(=O)OC)c(C=C)c(N)c2F)cc1 [Compound 60, methyl 4-amino-6-(4-ethynylphenyl)-5-fluoro-3-vinylpicolinate] | 0 to 29 | 0 to 29 | 0 to 29 | 0 to 29 | 0 to 29 | 0 to 29 | 0 to 29 | 0 to 29 | 0 to 29 | 0 to 29 | 0 to 29 | 0 to 29 | 0 to 29 | 0 to 29 | 0 to 29 | 0 to 29 | 0 to 29 | 0 to 29 | 0 to 29 | 0 to 29 | pest or weed control at 70 g/ha [2, 13]: 0 to 29%; pest or weed control at 140 g/ha [2, 13]: 0 to 29%; pest or weed control at 70 g/ha [2, 14]: 0 to 29%; pest or weed control at 140 g/ha [2, 14]: 0 to 29%; pest or weed control at 70 g/ha [2, 15]: 0 to 29%; pest or weed control at 140 g/ha [2, 15]: 0 to 29%; pest or weed control at 70 g/ha [2, 16]: 45 to 59%; pest or weed control at 140 g/ha [2, 16]: 75 to 84%; pest or weed control at 70 g/ha [2, 17]: 0 to 29%; pest or weed control at 140 g/ha [2, 17]: 0 to 29%
C=Cc1c(C(=O)O)nc(-c2ccc(C(F)(F)F)c(F)c2F)c(F)c1N [Compound 61] | 30 to 44 | 30 to 44 | 45 to 59 | 45 to 59 | 0 to 29 | 0 to 29 | 45 to 59 | 60 to 74 | 0 to 29 | 0 to 29 | 0 to 29 | 0 to 29 | 45 to 59 | 60 to 74 | 60 to 74 | 60 to 74 | 85 to 94 | 95 to 100 | 95 to 100 | 95 to 100 | pest or weed control at 70 g/ha [2, 13]: 0 to 29%; pest or weed control at 140 g/ha [2, 13]: 0 to 29%; pest or weed control at 70 g/ha [2, 14]: 75 to 84%; pest or weed control at 140 g/ha [2, 14]: 85 to 94%; pest or weed control at 70 g/ha [2, 15]: 95 to 100%; pest or weed control at 140 g/ha [2, 15]: 95 to 100%; pest or weed control at 70 g/ha [2, 16]: 95 to 100%; pest or weed control at 140 g/ha [2, 16]: 95 to 100%; pest or weed control at 70 g/ha [2, 17]: 0 to 29%; pest or weed control at 140 g/ha [2, 17]: 0 to 29%
COC(=O)c1nc(-c2ccc(I)c(F)c2)cc(N)c1Cl [Compound 66, methyl 4-amino-3-chloro-6-(3-fluoro-4-iodophenyl)picolinate] | 0 to 29 | 0 to 29 | 45 to 59 | 95 to 100 | 60 to 74 | 60 to 74 | 0 to 29 | 60 to 74 | 0 to 29 | 0 to 29 | 0 to 29 | 0 to 29 | 75 to 84 | 85 to 94 | 0 to 29 | 0 to 29 | 85 to 94 | 85 to 94 | 95 to 100 | 95 to 100 | pest or weed control at 70 g/ha [2, 13]: 45 to 59%; pest or weed control at 140 g/ha [2, 13]: 45 to 59%; pest or weed control at 70 g/ha [2, 14]: 85 to 94%; pest or weed control at 140 g/ha [2, 14]: 85 to 94%; pest or weed control at 70 g/ha [2, 15]: 95 to 100%; pest or weed control at 140 g/ha [2, 15]: 95 to 100%; pest or weed control at 70 g/ha [2, 16]: 85 to 94%; pest or weed control at 140 g/ha [2, 16]: 85 to 94%; pest or weed control at 70 g/ha [2, 17]: 0 to 29%; pest or weed control at 140 g/ha [2, 17]: 0 to 29%
Nc1c(F)c(-c2cc(F)c(I)cc2F)nc(C(=O)O)c1Cl [Compound 69] | 60 to 74 | 85 to 94 | 45 to 59 | 95 to 100 | 95 to 100 | 95 to 100 | 95 to 100 | 95 to 100 | 0 to 29 | 0 to 29 | 95 to 100 | 95 to 100 | 95 to 100 | 95 to 100 | 75 to 84 | 75 to 84 | 85 to 94 | 85 to 94 | 95 to 100 | 95 to 100 | pest or weed control at 70 g/ha [2, 13]: 95 to 100%; pest or weed control at 140 g/ha [2, 13]: 95 to 100%; pest or weed control at 70 g/ha [2, 14]: 95 to 100%; pest or weed control at 140 g/ha [2, 14]: 95 to 100%; pest or weed control at 70 g/ha [2, 15]: 95 to 100%; pest or weed control at 140 g/ha [2, 15]: 95 to 100%; pest or weed control at 70 g/ha [2, 16]: 95 to 100%; pest or weed control at 140 g/ha [2, 16]: 95 to 100%; pest or weed control at 70 g/ha [2, 17]: 95 to 100%; pest or weed control at 140 g/ha [2, 17]: 95 to 100%
